Measurements as given in ChEMBL document CHEMBL1201862, “PubChem BioAssay data set” (2004).
Calls of active or inactive are those of the source.

How the values were obtained:
Coagulation factor XII = target: T1, Coagulation factor XII (Homo sapiens, UniProt P00748); assay type: functional;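 note: activated factor XIIa alpha cleaving a fluorogenic AMC peptide substrate; inhibitor potency from loss of enzyme activity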
T1 sequence (P00748 whole entry): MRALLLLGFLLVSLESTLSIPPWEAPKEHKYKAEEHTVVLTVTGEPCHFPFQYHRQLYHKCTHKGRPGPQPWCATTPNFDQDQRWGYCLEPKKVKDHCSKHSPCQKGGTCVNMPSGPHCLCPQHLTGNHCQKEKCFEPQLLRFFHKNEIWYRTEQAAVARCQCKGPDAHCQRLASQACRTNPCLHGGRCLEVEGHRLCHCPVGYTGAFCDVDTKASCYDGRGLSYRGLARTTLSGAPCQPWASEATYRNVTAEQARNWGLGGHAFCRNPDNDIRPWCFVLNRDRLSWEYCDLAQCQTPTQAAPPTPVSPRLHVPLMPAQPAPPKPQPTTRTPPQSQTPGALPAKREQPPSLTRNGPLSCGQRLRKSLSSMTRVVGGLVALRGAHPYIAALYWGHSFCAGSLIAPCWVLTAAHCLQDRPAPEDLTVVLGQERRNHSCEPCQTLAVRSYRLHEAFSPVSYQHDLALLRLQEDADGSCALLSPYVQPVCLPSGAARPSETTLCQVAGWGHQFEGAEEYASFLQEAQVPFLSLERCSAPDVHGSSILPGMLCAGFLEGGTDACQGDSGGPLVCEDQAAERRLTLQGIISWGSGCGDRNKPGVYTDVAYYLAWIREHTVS

[1] = target: T2, Ubiquitin-conjugating enzyme E2 N (Homo sapiens, UniProt P61088); assay type: functional
T2 sequence (P61088 whole entry): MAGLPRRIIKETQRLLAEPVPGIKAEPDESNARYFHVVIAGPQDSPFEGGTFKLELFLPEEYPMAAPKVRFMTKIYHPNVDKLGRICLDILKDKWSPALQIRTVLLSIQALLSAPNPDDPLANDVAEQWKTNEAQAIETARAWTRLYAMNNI

[2] = target: T2, Ubiquitin-conjugating enzyme E2 N; assay type: functional; remark: listed apart in the source
Bcl-2-related protein A1 = target: T3, Bcl-2-related protein A1 (Mus musculus, UniProt Q07440); assay type: functional;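 note: confirmatory dose–response counterscreen on Bfl-1, used to check hits from a UBC13 polyubiquitin inhibitor campaign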
T3 sequence (Q07440 whole entry): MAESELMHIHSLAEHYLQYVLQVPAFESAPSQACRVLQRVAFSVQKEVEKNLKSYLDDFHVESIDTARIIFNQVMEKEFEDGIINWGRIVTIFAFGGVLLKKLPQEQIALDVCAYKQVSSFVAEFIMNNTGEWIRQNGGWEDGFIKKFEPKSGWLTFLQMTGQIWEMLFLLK

Large T antigen = Large T antigen (Simian virus 40, UniProt P03070); assay type: functional, Betapolyomavirus macacae;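 note: Confirmatory-stage PubChem screen for compounds that inhibit SV40 T antigen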
Cytochrome P450 2D6 = Cytochrome P450 2D6 (Homo sapiens, UniProt P10635);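 note: CYP2D6 member of a cytochrome P450 panel assay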
[3] = target: Peroxisome proliferator-activated receptor gamma/Nuclear receptor coactivator 2 (Homo sapiens, UniProt P37231); experiment: (§1) TR-FRET dose response biochemical High Throughput Screening assay for agonists of the steroid receptor coactivator 2 (SRC-2) recruitment by the peroxisome proliferator-activated receptor gamma (PPAR gamma): non-selective agonists. [Related pubchem assays: 1297, 1032 ]; assay type: functional
[4] = target: Peroxisome proliferator-activated receptor gamma/Nuclear receptor coactivator 1 (Homo sapiens, UniProt P37231); experiment: as §1, with “1 (SRC-1)” for “2 (SRC-2)”, “assays (depositor defined):AID1300, AID1808, AID504735, AID631]” for “assays: 1297, 1032 ]”; assay type: protein assay
[5] = target: Peroxisome proliferator-activated receptor gamma/Nuclear receptor coactivator 3 (Homo sapiens, UniProt P37231); experiment: as §1, with “3 (SRC-3)” for “2 (SRC-2)”, “1301 (Confirmation screen.), 1048 (Primary screen.)]” for “1297, 1032 ]”; assay type: functional
SUMO-activating enzyme = SUMO-activating enzyme (Homo sapiens, UniProt Q9UBT2); experiment: blockers of UBC9-mediated SUMO conjugation – biochemical, AlphaScreen, SUMOylation inhibitor project, confirmation (AID 2018); assay type: functional
[6] = Vero E6 cell cytotoxicity, dose response, cytotoxicity control for non-replicating M. tuberculosis project, secondary assay (AID 492998); assay type: functional, VeroE6; conditions: Vero C1008
BJ [7] = experiment: cells; assay type: functional, cell-based; conditions: Homo sapiens
BJ [8] = experiment: BJ-TERT fibroblast viability loss – cell-based, RAS-independent, luminescence, dose response (AID 1933); assay type: functional; conditions: Homo sapiens
[9] = DRD fibroblast viability loss – cell-based, non-viral oncogenic, luminescence, dose response (AID 1934); assay type: functional; conditions: Homo sapiens
[10] = THP-1 cell cytotoxicity, dose response, cytotoxicity control for non-replicating M. tuberculosis project (AID 489025); assay type: functional
[11] = Luminescence Cell-Based Dose Response HTS to Identify Activators of Luciferase Translation or Activity in H4 […] Cells. [Related pubchem assays: 1829 (Project Summary), 1814 (Primary HTS)]; assay type: functional
[12] = HepG2 cell cytotoxicity, dose response, cytotoxicity control for non-replicating M. tuberculosis project (AID 489018); assay type: functional; conditions: Mycobacterium tuberculosis
H4 = experiment: Luminescence Cell-Based Dose Response HTS to Identify Activators of 5'UTR Stem-Loop Driven Prion Protein mRNA Translation in H4 Neuroglioblastoma Cells. [Related pubchem assays: 1829 (Project Summary), 1814 (Primary HTS)]; assay type: functional; conditions: Homo sapiens
[13] = microbe, parasite or virus in culture; assay type: functional; conditions: Mycobacterium tuberculosis
cells = assay type: functional
[14] = Luminescence Cell-Based Dose Confirmation HTS to Identify Activators of 5'UTR Stem-Loop Driven Alpha-Synuclein mRNA Translation in H4 Neuroglioblastoma Cells. [Related pubchem assays: 1829 (Project Summary), 1814 (Primary HTS)]; assay type: functional
Paired box protein Pax-8 = Paired box protein Pax-8 (Homo sapiens, UniProt Q06710); experiment: PAX8 transcriptional activity inhibition in RMG-I – RMG-I cells, luciferase, cherry-pick, dose response (AID 687027); assay type: functional, cell-based;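 note: luciferase reporter driven by Pax8 target thyroperoxidase promoter measured by SteadyGlo luminescence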
[15] = HPDE-C7 pancreatic duct cell viability loss – fluorescence, HTS (AID 430); assay type: functional, cell-based; conditions: Homo sapiens
BJ [16] = experiment: BJ-TERT-LT-ST fibroblast viability loss – cell-based, RAS-independent, luminescence, dose response (AID 1935); assay type: functional; conditions: Homo sapiens;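 note: BJ fibroblasts immortalized with TERT plus LT and ST oncogenes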
[17] = viability loss of HPDE-C7K cells – cell-based, fluorescence, HTS, primary screen (AID 431); assay type: functional; conditions: Homo sapiens
[18] = target: T4, Microphthalmia-associated transcription factor (Homo sapiens, UniProt O75030); experiment: reducers of TRPM1 reporter luminescence, concentration series – cell-based, SK-MEL-5, cherry-picked, set 3, MITF inhibitor project, dose response (AID 493073); assay type: functional;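 note: SK-MEL-5 melanoma cells with luciferase driven by the MITF target TRPM1 promoter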
T4 sequence (O75030 whole entry): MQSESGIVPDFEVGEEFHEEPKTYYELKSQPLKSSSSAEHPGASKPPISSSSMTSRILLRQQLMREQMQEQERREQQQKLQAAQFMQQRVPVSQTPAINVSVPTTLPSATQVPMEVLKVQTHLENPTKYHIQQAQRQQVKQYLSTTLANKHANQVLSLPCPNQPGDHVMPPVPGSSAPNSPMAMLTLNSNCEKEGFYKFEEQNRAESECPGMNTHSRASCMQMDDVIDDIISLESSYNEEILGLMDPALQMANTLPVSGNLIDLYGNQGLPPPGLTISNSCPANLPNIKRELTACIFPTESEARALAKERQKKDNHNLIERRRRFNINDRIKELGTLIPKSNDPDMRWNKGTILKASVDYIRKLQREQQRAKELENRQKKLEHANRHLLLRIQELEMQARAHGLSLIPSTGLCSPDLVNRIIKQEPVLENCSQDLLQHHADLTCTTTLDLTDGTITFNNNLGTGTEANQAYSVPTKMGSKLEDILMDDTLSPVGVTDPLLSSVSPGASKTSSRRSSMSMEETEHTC

Large T antigen, sequence (P03070 whole entry): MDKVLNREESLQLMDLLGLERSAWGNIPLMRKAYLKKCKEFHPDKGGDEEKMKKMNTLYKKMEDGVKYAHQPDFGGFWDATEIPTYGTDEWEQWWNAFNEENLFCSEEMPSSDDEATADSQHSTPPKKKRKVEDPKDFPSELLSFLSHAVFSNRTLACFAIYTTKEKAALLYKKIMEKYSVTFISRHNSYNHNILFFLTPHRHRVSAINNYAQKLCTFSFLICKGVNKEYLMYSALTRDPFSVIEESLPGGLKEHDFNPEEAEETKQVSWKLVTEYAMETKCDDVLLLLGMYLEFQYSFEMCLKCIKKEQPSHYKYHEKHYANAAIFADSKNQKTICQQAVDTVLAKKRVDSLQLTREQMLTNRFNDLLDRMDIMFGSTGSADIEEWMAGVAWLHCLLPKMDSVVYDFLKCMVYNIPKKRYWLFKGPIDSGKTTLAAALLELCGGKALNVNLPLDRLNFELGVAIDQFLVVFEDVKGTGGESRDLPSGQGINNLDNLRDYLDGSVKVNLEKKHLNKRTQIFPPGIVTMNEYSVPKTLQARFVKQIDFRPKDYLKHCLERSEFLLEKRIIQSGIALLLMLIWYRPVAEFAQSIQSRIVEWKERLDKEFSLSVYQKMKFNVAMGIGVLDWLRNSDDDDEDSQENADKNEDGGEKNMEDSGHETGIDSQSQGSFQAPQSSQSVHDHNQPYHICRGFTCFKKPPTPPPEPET
Peroxisome proliferator-activated receptor gamma/Nuclear receptor coactivator 1, sequence (P37231 whole entry): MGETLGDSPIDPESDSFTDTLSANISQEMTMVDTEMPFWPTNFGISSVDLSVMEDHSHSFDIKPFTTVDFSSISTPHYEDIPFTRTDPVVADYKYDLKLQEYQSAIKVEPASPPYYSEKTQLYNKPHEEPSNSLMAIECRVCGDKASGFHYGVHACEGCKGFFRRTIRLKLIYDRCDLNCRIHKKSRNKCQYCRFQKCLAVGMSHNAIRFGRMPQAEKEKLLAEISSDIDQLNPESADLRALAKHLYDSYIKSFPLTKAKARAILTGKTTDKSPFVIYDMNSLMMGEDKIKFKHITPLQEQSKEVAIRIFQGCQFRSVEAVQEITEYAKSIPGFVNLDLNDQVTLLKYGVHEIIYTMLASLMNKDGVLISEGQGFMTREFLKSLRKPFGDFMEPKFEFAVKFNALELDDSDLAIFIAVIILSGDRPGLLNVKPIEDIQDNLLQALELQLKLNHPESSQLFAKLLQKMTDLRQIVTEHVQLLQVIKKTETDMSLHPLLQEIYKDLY
Peroxisome proliferator-activated receptor gamma/Nuclear receptor coactivator 1, sequence (Q15788 whole entry, further chain): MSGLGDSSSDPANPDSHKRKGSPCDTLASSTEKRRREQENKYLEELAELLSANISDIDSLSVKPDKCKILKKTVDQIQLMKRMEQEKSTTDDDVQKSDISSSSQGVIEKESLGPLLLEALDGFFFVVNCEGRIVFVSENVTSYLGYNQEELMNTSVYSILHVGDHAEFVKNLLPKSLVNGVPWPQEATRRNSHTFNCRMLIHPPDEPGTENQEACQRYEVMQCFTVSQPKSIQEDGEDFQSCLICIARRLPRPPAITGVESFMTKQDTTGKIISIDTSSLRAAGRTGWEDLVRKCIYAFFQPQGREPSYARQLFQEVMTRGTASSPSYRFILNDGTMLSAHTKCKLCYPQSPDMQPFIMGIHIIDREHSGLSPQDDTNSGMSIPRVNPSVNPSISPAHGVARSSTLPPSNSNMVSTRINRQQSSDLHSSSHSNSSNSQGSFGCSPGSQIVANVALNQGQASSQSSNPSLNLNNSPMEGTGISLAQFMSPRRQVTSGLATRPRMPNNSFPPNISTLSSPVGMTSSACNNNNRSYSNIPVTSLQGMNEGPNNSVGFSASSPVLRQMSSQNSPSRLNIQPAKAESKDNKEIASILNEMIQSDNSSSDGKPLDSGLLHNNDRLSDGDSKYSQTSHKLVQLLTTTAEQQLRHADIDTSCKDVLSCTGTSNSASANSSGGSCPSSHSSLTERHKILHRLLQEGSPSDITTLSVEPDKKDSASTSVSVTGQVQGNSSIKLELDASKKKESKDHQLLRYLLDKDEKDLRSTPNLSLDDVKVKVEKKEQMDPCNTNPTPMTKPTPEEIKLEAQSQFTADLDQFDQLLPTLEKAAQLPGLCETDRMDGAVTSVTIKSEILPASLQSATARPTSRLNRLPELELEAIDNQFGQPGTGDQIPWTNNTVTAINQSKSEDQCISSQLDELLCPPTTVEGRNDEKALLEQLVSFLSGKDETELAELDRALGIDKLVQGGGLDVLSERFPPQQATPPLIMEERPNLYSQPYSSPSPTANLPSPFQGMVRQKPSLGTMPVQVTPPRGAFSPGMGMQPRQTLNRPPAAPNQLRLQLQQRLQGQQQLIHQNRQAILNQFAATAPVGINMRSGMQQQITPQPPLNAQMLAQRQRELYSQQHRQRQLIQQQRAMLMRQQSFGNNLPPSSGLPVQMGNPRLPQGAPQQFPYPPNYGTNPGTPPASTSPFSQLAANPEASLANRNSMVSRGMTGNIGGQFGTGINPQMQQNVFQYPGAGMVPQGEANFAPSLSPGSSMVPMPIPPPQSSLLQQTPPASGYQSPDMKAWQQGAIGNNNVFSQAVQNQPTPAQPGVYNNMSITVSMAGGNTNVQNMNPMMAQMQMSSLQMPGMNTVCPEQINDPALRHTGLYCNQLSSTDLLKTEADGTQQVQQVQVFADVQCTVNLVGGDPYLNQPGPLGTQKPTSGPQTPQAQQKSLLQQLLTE
Peroxisome proliferator-activated receptor gamma/Nuclear receptor coactivator 3, sequence (P37231 whole entry): as the sequence (P37231 whole entry) above
Peroxisome proliferator-activated receptor gamma/Nuclear receptor coactivator 3, sequence (Q9Y6Q9 whole entry, further chain): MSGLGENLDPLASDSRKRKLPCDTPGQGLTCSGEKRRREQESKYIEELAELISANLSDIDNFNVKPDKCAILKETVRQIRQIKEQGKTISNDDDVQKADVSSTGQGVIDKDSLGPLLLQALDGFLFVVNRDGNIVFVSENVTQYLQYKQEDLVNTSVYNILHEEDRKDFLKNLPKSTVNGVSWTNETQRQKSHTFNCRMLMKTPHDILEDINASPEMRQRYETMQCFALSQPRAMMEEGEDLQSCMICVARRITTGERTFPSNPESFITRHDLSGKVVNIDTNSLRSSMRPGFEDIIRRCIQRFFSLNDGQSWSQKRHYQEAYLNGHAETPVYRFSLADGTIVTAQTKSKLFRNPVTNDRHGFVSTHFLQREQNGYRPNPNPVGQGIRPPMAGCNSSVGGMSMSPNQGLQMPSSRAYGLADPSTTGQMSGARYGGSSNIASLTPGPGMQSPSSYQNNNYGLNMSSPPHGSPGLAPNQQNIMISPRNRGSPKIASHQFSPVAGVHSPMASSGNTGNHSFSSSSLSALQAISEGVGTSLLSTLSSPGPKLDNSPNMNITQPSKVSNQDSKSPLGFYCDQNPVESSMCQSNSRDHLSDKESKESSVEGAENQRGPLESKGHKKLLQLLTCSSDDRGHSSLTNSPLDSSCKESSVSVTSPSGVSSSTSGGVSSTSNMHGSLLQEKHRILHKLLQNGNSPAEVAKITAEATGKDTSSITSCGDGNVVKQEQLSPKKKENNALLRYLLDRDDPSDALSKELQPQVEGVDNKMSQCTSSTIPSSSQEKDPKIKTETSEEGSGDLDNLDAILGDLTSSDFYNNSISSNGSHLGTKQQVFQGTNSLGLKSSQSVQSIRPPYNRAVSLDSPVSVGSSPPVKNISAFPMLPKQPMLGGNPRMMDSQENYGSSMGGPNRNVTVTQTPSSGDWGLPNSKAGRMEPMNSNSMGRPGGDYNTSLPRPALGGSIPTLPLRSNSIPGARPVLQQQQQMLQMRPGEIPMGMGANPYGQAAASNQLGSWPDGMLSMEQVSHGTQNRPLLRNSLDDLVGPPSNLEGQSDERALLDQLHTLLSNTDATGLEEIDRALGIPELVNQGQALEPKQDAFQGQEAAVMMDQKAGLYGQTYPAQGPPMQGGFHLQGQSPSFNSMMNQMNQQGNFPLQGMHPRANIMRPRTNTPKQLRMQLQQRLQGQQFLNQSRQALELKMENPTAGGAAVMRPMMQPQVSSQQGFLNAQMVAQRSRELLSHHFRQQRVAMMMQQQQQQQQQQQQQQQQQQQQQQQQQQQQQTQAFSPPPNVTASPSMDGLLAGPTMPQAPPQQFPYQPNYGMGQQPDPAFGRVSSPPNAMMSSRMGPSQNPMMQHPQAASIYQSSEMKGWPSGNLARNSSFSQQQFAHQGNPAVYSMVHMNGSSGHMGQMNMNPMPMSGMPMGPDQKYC
Paired box protein Pax-8, sequence (Q06710 whole entry): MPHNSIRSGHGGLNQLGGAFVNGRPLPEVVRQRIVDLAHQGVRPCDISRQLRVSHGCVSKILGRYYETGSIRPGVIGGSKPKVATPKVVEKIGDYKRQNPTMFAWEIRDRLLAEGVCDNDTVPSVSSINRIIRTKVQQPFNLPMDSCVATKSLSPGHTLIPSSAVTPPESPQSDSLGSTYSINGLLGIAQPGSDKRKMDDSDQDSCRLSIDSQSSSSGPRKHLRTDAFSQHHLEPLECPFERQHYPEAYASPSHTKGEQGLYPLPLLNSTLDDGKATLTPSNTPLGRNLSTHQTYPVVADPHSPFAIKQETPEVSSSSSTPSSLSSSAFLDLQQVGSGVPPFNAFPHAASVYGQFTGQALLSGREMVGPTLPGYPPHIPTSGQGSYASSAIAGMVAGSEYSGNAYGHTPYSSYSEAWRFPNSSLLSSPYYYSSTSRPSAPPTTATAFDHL

With `COc1ccccc1CC(=O)NCc1csc(-c2cccs2)n1` the IC50 (Coagulation factor XII) was > 50 µM (inactive).

For `Cc1sc2nc(C(C)Nc3ccccc3N3CCOCC3)[nH]c(=O)c2c1C` (stereo unspecified), the IC50 [1] was 16.5 µM (active), the IC50 [2] was 9.08 µM (active) and the IC50 (Bcl-2-related protein A1) was > 20 µM (inactive).

In the case of `CCOC(=O)C[n+]1c(C)sc2ccc(OC)cc21`, the IC50 (Large T antigen) is reported as 22.1 µM (active), the AC50 (Cytochrome P450 2D6) is reported as 12.6 µM (inconclusive) and the IC50 (Coagulation factor XII) is reported as > 50 µM (inactive).

In the case of `CCOc1ccc(S(=O)(=O)N(C)c2ccc(OCC(=O)Nc3nc(-c4cc(OC)ccc4OC)cs3)cc2)cc1`, the EC50 [3] is reported as 34.8 µM (not active), the EC50 [4] is reported as 36.5 µM (inactive) and the EC50 [5] is reported as > 79.4 µM (not active).

With `CC(=O)Nc1ccc(S(=O)(=O)Nc2nc3ccccc3nc2Nc2ccc3ccccc3c2)cc1` the IC50 (SUMO-activating enzyme) was > 100 µM (inactive).

In the case of `COc1ccc(CN(C)C(=O)Cc2ccc(OC)c(S(=O)(=O)N3CCOCC3)c2)cc1OC`, the IC50 [1] is reported as 12.6 µM (active), the IC50 [2] is reported as 10.8 µM (active) and the IC50 (Bcl-2-related protein A1) is reported as > 20 µM (inactive).

For `Nc1nnnn1/N=C/C(Br)=C/c1ccccc1`, the CC50 [6] was 5.79 µM (active), the EC50 (BJ [7]) was > 150 µM (inconclusive) and the EC50 (BJ [8]) was 5.12 µM (inconclusive). For the same compound, the EC50 [9] was 3.95 µM (active), the CC50 [10] was 5.96 µM (active) and the EC50 [11] was > 120 µM (not active). The CC50 [12] was 10 µM (active), the EC50 (H4) was > 120 µM (not active) and the CC50 [13] was 6.31 µM (active). The IC50 (cells) was 5.76 µM (active), the EC50 [14] was 17.4 µM (active) and the AC50 (Paired box protein Pax-8) was 1.36 µM (active). For the same compound, the EC50 [15] was 2.37 µM (active), the EC50 (BJ [16]) was > 38 µM (inconclusive) and the EC50 [17] was 2.94 µM (active). For the same compound, the AC50 [18] was 5.44 µM (active).

In the case of `CN(/N=C/c1ccc2c(c1)OCO2)c1nc(N2CCOCC2)nc(N2CCOCC2)n1`, the IC50 (Coagulation factor XII) is reported as > 50 µM (inactive).
